Where two headings read alike, the source gives them in different places.
Target: BRAF V600E (Homo sapiens, UniProt P15056, V600E)
Experiment: HiBiT cellular BRAF^V600E degradation assay
Type: cell-based
Conditions: for DC50: concentration at which 50% of total cellular BRAF^V600E is degraded; for Emax: read-out: HiBit 24 h Emax
[1] = A375.10 cells, 24 h, residual protein remaining in the cell

Chain of BRAF V600E (P15056 whole entry V600E): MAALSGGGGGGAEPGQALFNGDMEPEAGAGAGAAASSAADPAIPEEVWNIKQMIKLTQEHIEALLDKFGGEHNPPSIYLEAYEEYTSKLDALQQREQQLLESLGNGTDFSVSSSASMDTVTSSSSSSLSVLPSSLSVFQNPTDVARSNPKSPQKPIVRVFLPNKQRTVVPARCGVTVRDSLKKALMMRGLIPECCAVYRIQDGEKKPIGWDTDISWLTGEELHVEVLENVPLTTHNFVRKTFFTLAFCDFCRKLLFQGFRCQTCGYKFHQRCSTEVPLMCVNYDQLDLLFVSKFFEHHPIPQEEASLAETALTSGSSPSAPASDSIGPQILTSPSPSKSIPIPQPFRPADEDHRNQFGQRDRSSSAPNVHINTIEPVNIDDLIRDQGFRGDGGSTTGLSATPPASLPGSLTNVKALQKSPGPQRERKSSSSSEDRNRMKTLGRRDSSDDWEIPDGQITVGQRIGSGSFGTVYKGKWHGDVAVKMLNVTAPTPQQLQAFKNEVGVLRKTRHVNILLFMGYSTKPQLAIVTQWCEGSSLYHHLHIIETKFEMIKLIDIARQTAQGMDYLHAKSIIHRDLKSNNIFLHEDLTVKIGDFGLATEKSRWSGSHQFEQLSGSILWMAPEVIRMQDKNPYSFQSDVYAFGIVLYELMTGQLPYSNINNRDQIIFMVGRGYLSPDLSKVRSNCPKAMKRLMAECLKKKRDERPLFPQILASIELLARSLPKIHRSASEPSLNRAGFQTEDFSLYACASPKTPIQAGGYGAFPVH

CCN(C)S(=O)(=O)Nc1ccc(F)c(Oc2ccc3ncn(C4COC5(CCN(C(=O)CN6CCC(c7ccc(NC8CCC(=O)NC8=O)cc7F)CC6)CC5)C4)c(=O)c3c2C)c1C#N (stereo not drawn) [Example 59, 3-[6-[2-cyano-3-[[ethyl(methyl)sulfamoyl]amino]-6-fluorophenoxy]-5-methyl-4-oxoquinazolin-3-yl]-8-[2-[4-[4-[(2,6-dioxopiperidin-3-yl)amino]-2-fluorophenyl]piperidin-1-yl]acetyl]-1-oxa-8-azaspiro[4.5]decane]
DC50 (A375.10 cells, 24 h): 56 nM | Emax [1]: 10.4%

CCN(C)S(=O)(=O)Nc1ccc(F)c(Oc2ccc3ncn([C@H]4COC5(CCN(C(=O)CN6CCN(c7ccc(C8CCC(=O)NC8=O)cc7F)CC6)CC5)C4)c(=O)c3c2)c1C#N (stereo partly drawn) [Example 60, (3R)-3-[6-[2-cyano-3-[[ethyl(methyl)sulfamoyl]amino]-6-fluorophenoxy]-4-oxoquinazolin-3-yl]-8-[2-[4-[4-(2,6-dioxopiperidin-3-yl)-2-fluorophenyl]piperazin-1-yl]acetyl]-1-oxa-8-azaspiro[4.5]decane]
DC50 (A375.10 cells, 24 h): 40.5 nM | Emax [1]: 13%

CC(C)S(=O)(=O)Nc1ccc(F)c(Oc2ccc3ncn([C@H]4COC5(CCN(C(=O)CN6CCC(c7ccc(NC8CCC(=O)NC8=O)cc7F)CC6)CC5)C4)c(=O)c3c2)c1C#N (stereo partly drawn) [Example 61, N-[2-cyano-3-[3-[(3R)-8-[2-[4-[4-[(2,6-dioxopiperidin-3-yl)amino]-2-fluorophenyl]piperidin-1-yl]acetyl]-1-oxa-8-azaspiro[4.5]decan-3-yl]-4-oxoquinazolin-6-yl]oxy-4-fluorophenyl]propane-2-sulfonamide]
DC50 (A375.10 cells, 24 h): 21.1 nM | Emax [1]: 8.44%

CCN(C)S(=O)(=O)Nc1ccc(F)c(Oc2ccc3ncn([C@H]4CCC5(CCN(C(=O)CN6CCC(c7ccc(NC8CCC(=O)NC8=O)c(F)c7F)CC6)CC5)C4)c(=O)c3c2)c1C#N (stereo partly drawn) [Example 63, 6-[2-cyano-3-[[ethyl(methyl)sulfamoyl]amino]-6-fluorophenoxy]-3-[(3S)-8-[2-[4-[4-[(2,6-dioxopiperidin-3-yl)amino]-2,3-difluorophenyl]piperidin-1-yl]acetyl]-8-azaspiro[4.5]decan-3-yl]-4-oxoquinazoline]
DC50 (A375.10 cells, 24 h): 20.4 nM | Emax: 9.52%

CCN(C)S(=O)(=O)Nc1ccc(F)c(Oc2ccc3ncn([C@H]4COC5(CCN(C(=O)CN6CCC(c7ccc(C8CCC(=O)NC8=O)cc7F)C(F)(F)C6)CC5)C4)c(=O)c3c2)c1C#N (stereo partly drawn) [Example 65, (3R)-3-[6-[2-cyano-3-[[ethyl(methyl)sulfamoyl]amino]-6-fluorophenoxy]-4-oxoquinazolin-3-yl]-8-[2-[4-[4-(2,6-dioxopiperidin-3-yl)-2-fluorophenyl]-3,3-difluoropiperidin-1-yl]acetyl]-1-oxa-8-azaspiro[4.5]decane]
DC50 (A375.10 cells, 24 h): 9.48 nM | Emax [1]: 15.4%

CCN(C)S(=O)(=O)Nc1ccc(F)c(Oc2ccc3ncn([C@H]4CCC5(CCN(C(=O)CN6CCC(c7ccc(C8CCC(=O)NC8=O)cc7F)C(F)(F)C6)CC5)C4)c(=O)c3c2)c1C#N (stereo partly drawn) [Example 66, 6-[2-cyano-3-[[ethyl(methyl)sulfamoyl]amino]-6-fluorophenoxy]-3-[(3S)-8-[2-[4-[4-(2,6-dioxopiperidin-3-yl)-2-fluorophenyl]-3,3-difluoropiperidin-1-yl]acetyl]-8-azaspiro [4.5]decan-3-yl]-4-oxoquinazoline]
DC50 (A375.10 cells, 24 h): 11.3 nM | Emax [1]: 10.2%

CCN(C)S(=O)(=O)Nc1ccc(F)c(Oc2ccc3ncn([C@H]4CCC5(CCN(C(=O)CN6CCC(c7cc(F)c(NC8CCC(=O)NC8=O)cc7F)CC6)CC5)C4)c(=O)c3c2)c1C#N (stereo partly drawn) [Example 67, 6-[2-cyano-3-[[ethyl(methyl)sulfamoyl]amino]-6-fluorophenoxy]-3-[(3S)-8-[2-[4-[4-[(2,6-dioxopiperidin-3-yl)amino]-2,5-difluorophenyl]piperidin-1-yl]acetyl]-8-azaspiro[4.5]decan-3-yl]-4-oxoquinazoline]
DC50 (A375.10 cells, 24 h): 5.31 nM | Emax: 8.05%

CCN(C)S(=O)(=O)Nc1ccc(F)c(Oc2ccc3ncn(C4COC5(CCN(C(=O)CN6CCC(c7ccc(NC8CCC(=O)NC8=O)cc7F)CC6)CC5)C4)c(=O)c3c2Br)c1C#N (stereo not drawn) [Example 68, 3-[5-bromo-6-[2-cyano-3-[[ethyl(methyl)sulfamoyl]amino]-6-fluorophenoxy]-4-oxoquinazolin-3-yl]-8-[2-[4-[4-[(2,6-dioxopiperidin-3-yl)amino]-2-fluorophenyl]piperidin-1-yl]acetyl]-1-oxa-8-azaspiro[4.5]decane]
DC50 (A375.10 cells, 24 h): 8.77 nM | Emax [1]: 8.05%

CCN(C)S(=O)(=O)Nc1ccc(F)c(Oc2ccc3ncn(C4CCC5(CCN(C(=O)CN6CCC(c7ccc(NC8CCC(=O)NC8=O)cc7F)CC6)CC5)C4)c(=O)c3c2Br)c1C#N (stereo not drawn) [Example 69, 5-bromo-6-[2-cyano-3-[[ethyl(methyl)sulfamoyl]amino]-6-fluorophenoxy]-3-[8-[2-[4-[4-[(2,6-dioxopiperidin-3-yl)amino]-2-fluorophenyl]piperidin-1-yl]acetyl]-8-azaspiro[4.5]decan-3-yl]-4-oxoquinazoline]
DC50 (A375.10 cells, 24 h): 6.63 nM | Emax [1]: 9.52%

CCN(C)S(=O)(=O)Nc1ccc(F)c(Oc2ccc3ncn(C4CCC5(CCN(C(=O)CN6CCC(c7ccc(NC8CCC(=O)NC8=O)cc7F)CC6)CC5)C4)c(=O)c3c2Cl)c1C#N (stereo not drawn) [Example 70, 5-chloro-6-[2-cyano-3-[[ethyl(methyl)sulfamoyl]amino]-6-fluorophenoxy]-3-[8-[2-[4-[4-[(2,6-dioxopiperidin-3-yl)amino]-2-fluorophenyl]piperidin-1-yl]acetyl]-8-azaspiro[4.5]decan-3-yl]-4-oxoquinazoline]
DC50 (A375.10 cells, 24 h): 27.7 nM | Emax [1]: 10.7%

CCN(C)S(=O)(=O)Nc1ccc(F)c(Oc2ccc3ncn(C4COC5(CCN(C(=O)CN6CCC(c7ccc(NC8CCC(=O)NC8=O)cc7F)CC6)CC5)C4)c(=O)c3c2Cl)c1C#N (stereo not drawn) [Example 71, 3-[5-chloro-6-[2-cyano-3-[[ethyl(methyl)sulfamoyl]amino]-6-fluorophenoxy]-4-oxoquinazolin-3-yl]-8-[2-[4-[4-[(2,6-dioxopiperidin-3-yl)amino]-2-fluorophenyl]piperidin-1-yl]acetyl]-1-oxa-8-azaspiro[4.5]decane]
DC50 (A375.10 cells, 24 h): 37.6 nM | Emax [1]: 10.5%

CCN(C)S(=O)(=O)Nc1ccc(F)c(Oc2ccc3ncn([C@H]4COC5(CCN(C(=O)CN6CCC(c7ccc(NC8CCC(=O)NC8=O)cc7F)CC6)CC5)C4)c(=O)c3c2F)c1C#N (stereo partly drawn) [Example 72, (3R)-3-[6-[2-cyano-3-[[ethyl(methyl)sulfamoyl]amino]-6-fluorophenoxy]-5-fluoro-4-oxoquinazolin-3-yl]-8-[2-[4-[4-[(2,6-dioxopiperidin-3-yl)amino]-2-fluorophenyl]piperidin-1-yl]acetyl]-1-oxa-8-azaspiro[4.5]decane]
DC50 (A375.10 cells, 24 h): 39.9 nM | Emax [1]: 8.63%

CCN(C)S(=O)(=O)Nc1ccc(F)c(Oc2ccc3ncn([C@@H]4COC5(CCN(C(=O)CN6CCC(c7ccc(NC8CCC(=O)NC8=O)cc7F)CC6)CC5)C4)c(=O)c3c2Br)c1C#N (stereo partly drawn) [Example 74, (3S)-3-[5-bromo-6-[2-cyano-3-[[ethyl(methyl)sulfamoyl]amino]-6-fluorophenoxy]-4-oxoquinazolin-3-yl]-8-[2-[4-[4-[(2,6-dioxopiperidin-3-yl)amino]-2-fluorophenyl]piperidin-1-yl]acetyl]-1-oxa-8-azaspiro[4.5]decane]
DC50 (A375.10 cells, 24 h): 31.5 nM | Emax [1]: 11.6%

CCN(C)S(=O)(=O)Nc1ccc(F)c(Oc2ccc3ncn([C@H]4COC5(CCN(C(=O)CN6CCC(c7cc(OC)c(NC8CCC(=O)NC8=O)cc7F)CC6)CC5)C4)c(=O)c3c2)c1C#N (stereo partly drawn) [Example 75, (3R)-3-[6-[2-cyano-3-[[ethyl(methyl)sulfamoyl]amino]-6-fluorophenoxy]-4-oxoquinazolin-3-yl]-8-[2-[4-[4-[(2,6-dioxopiperidin-3-yl)amino]-2-fluoro-5-methoxyphenyl]piperidin-1-yl]acetyl]-1-oxa-8-azaspiro[4.5]decane]
DC50 (A375.10 cells, 24 h): 43.2 nM | Emax [1]: 8.31%

CCN(C)S(=O)(=O)Nc1ccc(F)c(Oc2ccc3ncn([C@H]4COC5(CCN(C(=O)CN6CCCC(c7ccc(NC8CCC(=O)NC8=O)cc7F)CC6)CC5)C4)c(=O)c3c2)c1C#N (stereo partly drawn) [Example 76, (3R)-3-[6-[2-cyano-3-[[ethyl(methyl)sulfamoyl]amino]-6-fluorophenoxy]-4-oxoquinazolin-3-yl]-8-[2-[4-[4-[(2,6-dioxopiperidin-3-yl)amino]-2-fluorophenyl]azepan-1-yl]acetyl]-1-oxa-8-azaspiro[4.5]decane]
DC50 (A375.10 cells, 24 h): 50.1 nM | Emax [1]: 13.2%

CCN(C)S(=O)(=O)Nc1ccc(F)c(Oc2ccc3ncn(C4COC5(CCN(C(=O)CN6CCC(c7ccc(NC8CCC(=O)NC8=O)cc7F)CC6)CC5)C4)c(=O)c3c2N)c1C#N (stereo not drawn) [Example 81, 3-[5-amino-6-[2-cyano-3-[[ethyl(methyl)sulfamoyl]amino]-6-fluorophenoxy]-4-oxoquinazolin-3-yl]-8-[2-[4-[4-[(2,6-dioxopiperidin-3-yl)amino]-2-fluorophenyl]piperidin-1-yl]acetyl]-1-oxa-8-azaspiro[4.5]decane]
DC50 (A375.10 cells, 24 h): 25.4 nM | Emax [1]: 12.2%

CCN(C)S(=O)(=O)Nc1ccc(F)c(Oc2ccc3ncn(-c4cnc(N5CCN(C(=O)CN6CCC(c7ccc(NC8CCC(=O)NC8=O)cc7F)CC6)CC5)nc4)c(=O)c3c2)c1C#N (stereo not drawn) [Example 84, 6-[2-cyano-3-[[ethyl(methyl)sulfamoyl]amino]-6-fluorophenoxy]-3-[2-[4-[2-[4-[4-[(2,6-dioxopiperidin-3-yl)amino]-2-fluorophenyl]piperidin-1-yl]acetyl]piperazin-1-yl]pyrimidin-5-yl]-4-oxoquinazoline]
DC50 (A375.10 cells, 24 h): 9.97 nM | Emax [1]: 9.26%

CCN(C)S(=O)(=O)Nc1ccc(F)c(Oc2ccc3ncn(-c4ccc(N5CCN(C(=O)CN6CCC(c7ccc(NC8CCC(=O)NC8=O)cc7F)CC6)CC5)nc4)c(=O)c3c2)c1C#N (stereo not drawn) [Example 85, 6-[2-cyano-3-[[ethyl(methyl)sulfamoyl]amino]-6-fluorophenoxy]-3-[6-[4-[2-[4-[4-[(2,6-dioxopiperidin-3-yl)amino]-2-fluorophenyl]piperidin-1-yl]acetyl]piperazin-1-yl]pyridin-3-yl]-4-oxoquinazoline]
DC50 (A375.10 cells, 24 h): 15.8 nM | Emax [1]: 11%

From patent US12486253B2, “Therapeutics for the degradation of mutant BRAF” (C4 THERAPEUTICS, INC., priority 2021, dated 2025)
